Test results: patent US5510338A, “Phosphonoalkylquinolin-2-ones as novel antagonists of non-NMDA ionotropic excitatory amino acid receptors” (priority 1994, dated 1996)

Columns and labels:
[1] = tested on: NMDA; conditions: U.S. Pat. No. 4,657,899; cited from earlier work
[2] = tested on: kainate receptors; conditions: U.S. Pat. No. 4,657,899, Table I on column 13; cited from earlier work
[3] = molecular target: T1, Glycine (strychnine insensitive glycine binding) (Rattus norvegicus, UniProt P35439); assay: Strychnine insensitive glycine binding; conditions: read-out: Receptor Potency (Ki), Glycine
T1 construct: from tissue
Experimental: Binding assays for the displacement of ^3 H!AMPA were performed as described by Murphy et al. (Neurochemical Reseach. 12: 775-781 1987!). KA binding assays were performed as described by London et al (Molecular Pharmacology. 15:492-505 1979!); strychnine insensitive glycine binding was evaluated by the method of Snell et al (European Journal of Pharmacology. 156: 105-110 1988!.

[4] = molecular target: CNQX-labeled non-NMDA receptors; assay: Inhibition of EAA receptor ligand binding, CNQX (CNQX-labeled non-NMDA receptors); conditions: for Ki: inhibition of EAA receptor ligand binding, CNQX-labeled non-NMDA receptors, read-out: Receptor Potency (Ki), CNOX; for selectivity for NMDA vs non-NMDA receptors: in words, from Table II data
[5] = molecular target: GLU; assay: Inhibition of EAA receptor ligand binding, GLU; conditions: read-out: Receptor Potency (Ki), GLU
[6] = molecular target: KA receptors (KA-induced currents in rat brain mRNA-injected Xenopus oocytes); assay: Inhibition of KA-induced currents in rat brain mRNA-injected Xenopus oocytes; assay type: cell-based; conditions: for Potency to inhibit KA-induced currents, Ki: rat brain mRNA-injected Xenopus oocytes, voltage clamped at -60 to -70 mV, IC50 converted to Ki by Cheng-Prusoff equation
Experimental: Defolliculated oocytes obtained from Xenopus laevis females were injected with 30-75 ng of poly (A+) mRNA obtained from 21-day old male Sprague-Dawley rats. Oocytes were placed individually in 100 ml of antibiotic-supplemented modified Barthes solution (MBS, containing in mM: NaCl, 88; KCl 1.0; NaHCO3, 2.4 HEPES, 10; MgSO4 0.82; Ca(NO3)2, 0.33) in 96-well sterile plates and cultured for 48-120 hours prior to experimentation. Oocytes were inspected every 24 hours at which time the bathing solution is replaced with fresh MBS.
For electrophysiological studies, oocytes were positioned in a small recording chamber (500 ml) and superfused with antibiotic free MBS supplemented with CaCl2 (final concentration=1.4 mM). Oocytes are impaled with a single glass microelectrode, voltage clamped at -60 to -70 mV, and perfused by gravity feed at a rate of 3-5 ml/min at room temperature. […] Antagonists are coperfused with agonists.
Potencies to inhibit kainic acid-, AMPA- and NMDA/glycine-induced currents are determined from concentration-response curves. IC50 values are converted to Ki values for comparison purposes using the Cheng-Prusoff equation.

Row | Ki [3] | Ki [4] | Ki [5] | selectivity for NMDA vs non-NMDA receptors [4] | Potency to inhibit KA-induced currents, Ki [6] | Compound | NMDA antagonist activity (in words) [1] | binding affinity for kainate receptors (in words) [2] | activity in words of related compounds tested [6]
1 | 231 µM | 91 µM | 600 µM |  |  | O=c1cc(CCP(=O)(O)O)c2ccc(Cl)cc2[nH]1 [Example 1, 7-Chloro-4-phosphonethylquinolin-2-one] |  |  | 
2 | 10 µM | 59 µM | 30 µM | not very selective | 32 µM | O=c1cc(CP(=O)(O)O)c2ccc(Cl)cc2[nH]1 [Example 2, 7-Chloro-4-phosphonomethylquinolin-2-one] |  |  | 
3 | 28 µM | 38 µM | > 100 µM | quite selective | 18.2 µM | O=c1cc(CP(=O)(O)O)c2c(Cl)cc(Cl)cc2[nH]1 [Example 3, 5,7-Dichloro-4-phosphonomethylquinolin-2-one] |  |  | 
4 | 29 µM | 26 µM | 35 µM | not very selective | 15.6 µM | O=c1cc(CP(=O)(O)O)c2ccc(I)cc2[nH]1 [Example 4, 7-Iodo-4-phosphonomethylquinolin-2-one] |  |  | 
5 |  | 15 µM | > 100 µM | quite selective | 9.6 µM | O=c1cc(CP(=O)(O)O)c2cc(Cl)c(Cl)cc2[nH]1 [Example 5, 6,7-Dichloro-4-phosphonomethylquinolin-2-one] |  |  | 
6 | > 1000 µM |  | > 300 µM |  | > 100 µM | O=c1cc(P(=O)(O)O)c2ccc(Cl)cc2[nH]1 [Example 24, 7-Chloro-4-phosphonoquinolin-2-one] |  |  | 
7 | > 1000 µM | 300 µM | > 1000 µM |  |  | O=c1cc(CP(=O)(O)O)c2ccc(Cl)c([N+](=O)[O-])c2[nH]1 [Example 25, 7-Chloro-8-nitro-4-phosphonomethylquinolin-2-one] |  |  | 

The remaining lines, values behind:

Row | Compound | Ki [3] | Ki [4] | Ki [5] | selectivity for NMDA vs non-NMDA receptors [4] | Potency to inhibit KA-induced currents, Ki [6] | NMDA antagonist activity (in words) [1] | binding affinity for kainate receptors (in words) [2] | activity in words of related compounds tested [6]
8 | NC(Cc1ccccc1CCP(=O)(O)O)C(=O)O (stereo not drawn) [2-amino-3-2-(2-phosphonoethyl)phenyl!propanoic acid] |  |  |  |  |  | antagonists of NMDA | very low binding affinity | 
9 | CCC(c1ccccc1CCCP(=O)(O)O)C(N)C(=O)O (stereo not drawn) [2-amino-3-2-(3-phosphonopropyl) phenyl!pentanoic acid] |  |  |  |  |  | antagonists of NMDA | very low binding affinity | 
10 | NC(Cc1ccccc1CP(=O)(O)O)C(=O)O (stereo not drawn) [2-amino-3-2-phosphonomethylphenyl!propanoic acid] |  |  |  |  |  | antagonists of NMDA | very low binding affinity | 
11 | NC(CCCc1ccccc1CP(=O)(O)O)C(=O)O (stereo not drawn) [2-amino-5-2-phosphonomethylphenyl!pentanoic acid] |  |  |  |  |  | antagonists of NMDA | very low binding affinity | 
12 | CCOP(=O)(Cc1cc(=O)[nH]c2cc(Cl)cc(Cl)c12)OCC [Example 21a, 5,7-Dichloro-4-(diethoxyphosphinyl)methylquinolin-2-one] | 103 µM | > 100 µM |  |  | 480 µM |  |  | essentially inactive
13 | O=C(O)c1cc(CCP(=O)(O)O)c2ccc(Cl)cc2n1 [Example 22, 2-Carboxy-7-chloro-4-phosphonethylquinoline] | > 1000 µM | 384 µM | > 100 µM |  | 450 µM |  |  | 
14 | O=C(O)c1cc(CP(=O)(O)O)c2ccc(Cl)cc2n1 [Example 23, 2-Carboxy-7-chloro-4-phosphonomethylquinoline] | 68 µM | 64 µM |  |  | 129 µM |  |  | 
15 | O=c1cc(CP(=O)(O)O)c2c([N+](=O)[O-])c(Cl)ccc2[nH]1 [Example 26, 6-Chloro-5-nitro-4-phosphonomethylquinolin-2-one] | > 1000 µM | > 1000 µM | > 1000 µM |  | > 300 µM |  |  | 
